The source of these data is PMC2922868 (ACS medicinal chemistry letters, 2010).

Entries after “also recorded” stand apart in the source; their conditions may differ. Like-named read-outs stand apart in the source and are kept apart here.

The subject of experiment [1] is Hsp90-IP6K2 interaction. The settings on record: ref [17], cited from earlier work.
Another experiment deals with Hsp90-FKBP52 interaction. The settings on record: not tested in this paper; reference not given; cited from earlier work.
The test system of experiment [2] is Hsp90-IP6K2 interaction. Briefly: in vitro pull down binding assay, Hsp90-IP6K2.
Experiment [3] deals with IP6K2 over expressed (K2-O/E) HEK 293 cells. Briefly: cell survival, IP6K2 over expressed vs wild-type HEK 293 cells. It is filed as cell-based. The conditions noted are these: 48 hours, CCK-8.
The test system of experiment [4] is full length Hsc82 (yeast variant of Hsp90). Put plainly: pull-down with San A-amide-Biotin, Hsc82 full length. Type of experiment: binding. The settings on record: San A-amide-Biotin as probe, His-fusion, Figure 5 lane 6.
The test system of experiment [5] is N-terminal domain of Hsc82 (yeast variant of Hsp90). Briefly: pull-down with San A-amide-Biotin, Hsc82 N-terminal domain. Type of experiment: binding. The settings on record: San A-amide-Biotin as probe, His-fusion, Figure 5 lane 2.
Experiment [6] relates to middle domain of Hsc82 (yeast variant of Hsp90). It is filed as binding. The settings on record: pull-down, San A-amide-Biotin as probe; His-fusion; Figure 5 lane 3.
In experiment [7] the test system is C-terminal domain of Hsc82 (yeast variant of Hsp90). Briefly: pull-down with San A-amide-Biotin, Hsc82 C-terminal domain. It is filed as binding. The conditions noted are these: San A-amide-Biotin as probe, His-fusion, Figure 5 lane 4.
The test system of experiment [8] is N-middle domain of Hsc82 (yeast variant of Hsp90). Briefly: pull-down with San A-amide-Biotin, Hsc82 N-middle construct. It is filed as binding. The conditions noted are these: San A-amide-Biotin as probe, His-fusion, Figure 5 lane 5.
The test system of another experiment is Hsp90. Put plainly: Hsp90 ATPase activity / ATP hydrolysis. Type of experiment: biochemical. The conditions noted are these: Supplementary data, Figure S7.
The conditions of experiment [9]: ref [6], [8]; cited from earlier work.
The next experiment has as its system Hsp90-IP6K2 pathway. The conditions noted are these: ref [17]; cited from earlier work.

Consider `CO[C@@H]1[C@@H](OC(N)=O)[C@@H](O)[C@H](Oc2ccc3c(O)c(NC(=O)c4ccc(O)c(CC=C(C)C)c4)c(=O)oc3c2C)OC1(C)C` [novobiocin], for which the EC50 (as a rule, the concentration at which the effect is half-maximal) in the experiment on Hsp90-IP6K2 interaction [1] (read-out: EC50, inhibition of IP6K2 binding to Hsp90) was about 100 µM. For the same compound, in the experiment on Hsp90-IP6K2 interaction [1], the “effect on IP6K2 binding to Hsp90 (in words)” value was “only disrupts Hsp90-IP6K2”. Further, in the experiment with Hsp90-FKBP52 interaction, the “effect on Hsp90-FKBP binding (in words)” value is listed as “not FKBP binding”.
On to Sansalvamide A-amide [San A-amide], for which the “effectiveness relative to novobiocin, IP6K2 binding (in words)” value with Hsp90-IP6K2 interaction [2] (EC50 ~1 μM vs ~100 μM for novobiocin (ref [17])) was “significantly more effective binding inhibitor”. Besides, the “inhibition of IP6K2 binding to Hsp90 (in words)” value in the experiment with Hsp90-IP6K2 interaction [2] (native Hsp90 from HeLa cells, His-IP6K2, 0-10 μM) was “able to block both Hsp90-IP6K2 and Hsp90-FKBP interactions; also recorded: blocks the binding of Hsp90 to a client protein; also recorded: inhibits the binding of the C-terminal interacting protein, IP6K2, to Hsp90”. Also, the “fold potency over Novobiocin at inhibiting C-terminal client proteins” value in the experiment on Hsp90-IP6K2 interaction [2] (versus Novobiocin) is on record as “over 100 fold”. The “fold change in survival difference, with drug vs no drug (3% vs 27% change)” value in experiment [3] (25 μM San A-amide, K2-O/E vs wild type HEK 293) is reported as ~ 9 fold. For the same compound, the “change in cell survival, K2-O/E compared to wild type (control)” value in experiment [3] (25 μM San A-amide, change without drug 3%) came out at 27%. Further, the “cell survival in K2-O/E compared to wild type (in words)” value in experiment [3] (25 μM) is listed as “cell survival is substantially decreased in cells that over-express IP6K2 compared to wild type cells”. Further, in experiment [3] (25 μM, HEK 293), the “induction of cell death through the Hsp90-IP6K2 pathway (in words)” value is recorded as “induces cell death, at least in part, through the Hsp90-IP6K2 pathway”. In experiment [4], the “binding to full length Hsc82” value is recorded as “bound to full length Hsp90”. Further, the “binding to N-terminal domain” value in experiment [5] is on record as “only a marginally detectable interaction”. Besides, the “binding to middle domain” value in experiment [6] is “partial affinity”. In addition, the “binding to C-terminal domain” value in [7] is “no affinity”. Moreover, the “binding to N-middle construct” value in experiment [8] was “optimal affinity; also recorded: specifically binds to the N-middle domain of Hsp90”. The “effect on ATP hydrolysis by Hsp90” value with Hsp90 is listed as “no affect on ATP hydrolysis”. Besides, the “apoptosis (in words)” value in experiment [9] is reported as “shown to cause apoptosis”.
For `C=CCNC1=C2C[C@@H](C)C[C@H](OC)[C@H](O)[C@@H](C)/C=C(\C)[C@H](OC(N)=O)[C@@H](OC)/C=C\C=C(/C)C(=O)NC(=CC1=O)C2=O` [17-AAG, 17-allylamino, 17-demethoxygeldanamycin], the “IP6K2 binding inhibition at 10 μM (in words)” value in the experiment on Hsp90-IP6K2 interaction [1] (10 μM) is given as “not inhibited”. For the same compound, the “effect on IP6K2 binding to Hsp90 (in words)” value with Hsp90-IP6K2 interaction [1] was “did not affect the binding of IP6K2”; in the experiment with Hsp90-IP6K2 interaction [1] (listed as 17AAG) it was “FKBP and IP6K2 binding to Hsp90 are not affected”. Further, the “effect on Hsp90-IP6K2 pathway (in words)” value in the experiment with Hsp90-IP6K2 pathway was “did not affect this pathway”.
